According to patent EP0521310A2, “Solid dispersion tablets containing 1,4-dihydropyridine derivatives and process for the preparation thereof” (FUJIREBIO Inc., priority 1991, dated 1993):

Experiment: thermal analysis (DSC) of solid dispersions, conversion to amorphous form
Type: physicochemical
Method: HPC and FRC8653, in the propotion of 1, 2, 3, 4 or 5 parts by weight of HPC based on one part by weight of FRC8653, were added to the mixed solvent of methanol/dichloromethane and dissolved, followed by removal of the solvent and drying. The samples obtained were subjected to thermal analysis (DSC).
Both HP55 (Shin-Etsu Chemical Co.) and FRC8653, in the proportion of 1, 2, 3, 4 or 5 parts by weight of HP55 based on one part by weight of FRC8653, were added to the mixed solvent of methanol/dichloromethane and dissolved, followed by removal of the solvent and drying in order to subject to thermal analysis (DSC). The amount of HP55 necessary to convert the FRC8653 into its amorphous form was 2 parts by weight or more per one part by weight of FRC8653.

amount of HPC required to convert FRC8653 into its amorphous form (Fig. 3): ≥ 4 parts by weight per one part b
amount of HP55 necessary to convert the FRC8653 into its amorphous form (Fig. 6): ≥ 2 parts by weight per one part b
SMILES: COCCOC(=O)C1=C(C)NC(C)=C(C(=O)OC/C=C/c2ccccc2)C1c1cccc([N+](=O)[O-])c1 (racemic) [FRC8653, 2-methoxyethyl (E)-3-phenyl-2-propen-1-yl (+/-)-1,4-dihydro-2,6-dimethyl-4-(3-nitrophenyl)-3,5-pyridinedicarboxylate]
